Test results taken from patent publication US20220378707A1, “1-(((2S,3S,4S)-3-ETHYL-4-FLUORO-5-OXOPYRROLIDIN-2-YL)METHOXY)-7-METHOXYISOQUINOLINE-6-CARBOXAMIDE COMBINATIONS AND ORAL DOSAGE FORMS” (Pfizer Inc., priority 2019, published 2022).
Entries after “also recorded” stand apart in the source; their conditions may differ.

Key:
[1] = system: HDFn+(IL-1β, TNFα, IFNγ, EGF, bFGF and PDGF-BB); assay: BioMAP HDF3CGF system; format: cell-based, human; conditions: for Inhibition of biomarker readouts in the HDF3CGF system: wound healing, Th1-type inflammation, concentrations of FIGS. 12-16
From the text: (§1) The BioMAP systems consist of human primary cell-based systems designed to model different aspects of the human body in an in vitro format. The 12 systems tested characterized the test compounds across a broad set of systems modeling various human disease states. BioMAP systems were constructed with one or more primary cell types from healthy human donors, with stimuli (such as cytokines or growth factors) added to capture relevant signaling networks that naturally occur in human tissue or pathological conditions. Vascular biology was modeled in both a Th1 (3C system) and a Th2 (4H system) inflammatory environment, as well as in a Th1 inflammatory state specific to arterial smooth muscle cells (CASM3C system). Additional systems recapitulated aspects of the systemic immune response that included monocyte-driven Th1 inflammation (LPS system) or T cell stimulation (SAg system), chronic Th1 inflammation driven by macrophage activation (IMphg system) and the T cell-dependent activation of B cells that occurs in germinal centers (BT system). The BE3C system (Th1) and the BF4T system (Th2) represented airway inflammation of the lung, while the MyoF system modeled myofibroblast-lung tissue remodeling. Lastly, skin biology was addressed in the KF3CT system modeled Th1 cutaneous inflammation and the HDF3CGF system modeled wound healing.
(§2) All cells were from a pool of multiple donors (n=2-6), commercially purchased and handled according to the recommendations of the manufacturers. Human blood derived CD14+ monocytes were differentiated into macrophages in vitro before being added to the IMphg system. Abbreviations were used as follows: human umbilical vein endothelial cells (HUVEC), peripheral blood mononuclear cells (PBMC), human neonatal dermal fibroblasts (HDFn), B cell receptor (BCR), T cell receptor (TCR) and toll-like receptor (TLR). Cell types and stimuli used in each system were as follows:
(§3) 3C system [HUVEC+(IL-1β, TNFα and IFNγ)]; 4H system [HUVEC+(IL-4 and histamine)]; LPS system [PBMC and HUVEC+LPS (TLR4 ligand)]; SAg system [PBMC and HUVEC+T cell receptor (TCR) ligands]; BT system [CD19+B cells and PBMC+(α-IgM and TCR ligands)]; BF4T system [bronchial epithelial cells and HDFn+(TNFα and IL-4)]; BE3C system [bronchial epithelial cells+(IL-1p, TNFα and IFNγ)]; CASM3C system [coronary artery smooth muscle cells+(IL-1p, TNFα and IFNγ)]; HDF3CGF system [HDFn+(IL-1β, TNFα, IFNγ, EGF, bFGF and PDGF-BB)]; KF3CT system [keratinocytes and HDFn+(IL-1β, TNFα and IFNγ)]; MyoF system [differentiated lung myofibroblasts+(TNFα and TGFβ)]; and IMphg system [HUVEC and M1 macrophages+Zymosan (TLR2 ligand)].
(§4) Systems were derived from either single cell types or co-culture systems. Adherent cell types were cultured in 96 or 384-well plates until confluence, followed by the addition of PBMC (SAg and LPS systems). […] Test agents were prepared in DMSO (final concentration <0.1%) and were added 1 hour before stimulation, and remained in culture for 24 hours or as otherwise indicated (48-hrs, MyoF system; 72-hrs, BT system (soluble readouts); 168-hrs, BT system (secreted IgG)). […] Soluble factors from supernatants were quantified using either HTRF® detection, bead-based multiplex immunoassay or capture ELISA. Overt adverse effects of test agents on cell proliferation and viability (cytotoxicity) were detected by sulforhodamine B (SRB) staining, for adherent cells, and alamarBlue® reduction for cells in suspension.

[2] = system: CD19+B cells and PBMC+(α-IgM and TCR ligands); assay: BioMAP BT system; format: cell-based, human; conditions: for Inhibition of biomarker readouts in the BT system / Increased biomarker readouts in the BT system: T cell dependent B cell activation; for Inhibition of biomarker readouts in the BT system: concentrations of FIGS. 12-14; for Increased biomarker readouts in the BT system: tofacitinib 37-1000 nM
From the text: as §1, §2, §3
(§5) Systems were derived from either single cell types or co-culture systems. Adherent cell types were cultured in 96 or 384-well plates until confluence, followed by the addition of PBMC (SAg and LPS systems). The BT system consisted of CD19+B cells co-cultured with PBMC and stimulated with a BCR activator and low levels of TCR stimulation. Test agents were prepared in DMSO (final concentration <0.1%) and were added 1 hour before stimulation, and remained in culture for 24 hours or as otherwise indicated (48-hrs, MyoF system; 72-hrs, BT system (soluble readouts); 168-hrs, BT system (secreted IgG)). Each plate contained drug controls (e.g., legacy control test agent colchicine at 1.1 μM), negative controls (e.g., non-stimulated conditions) and vehicle controls (e.g., 0.1% DMSO) appropriate for each system. Direct ELISA was used to measure biomarker levels of cell-associated and cell membrane targets. Soluble factors from supernatants were quantified using either HTRF® detection, bead-based multiplex immunoassay or capture ELISA. Overt adverse effects of test agents on cell proliferation and viability (cytotoxicity) were detected by sulforhodamine B (SRB) staining, for adherent cells, and alamarBlue® reduction for cells in suspension. […]

[3] = system: human primary cell-based systems; assay: BioMAP panel of 12 systems; conditions: for Number of annotated readouts with activity / Overt cytotoxicity on primary human cell types: 12 tissue and disease models; for Immunomodulatory activities: Decreased Activity / Inflammation-related activities: Decreased Activity: PF-06651600 200-5400 nM
From the text: as §1, §2, §3, §5

[4] = 13 week toxicology study in rat: exposure interaction of tofacitinib and PF-06650833; format: in vivo
[5] = system: bronchial epithelial cells and HDFn+(TNFα and IL-4); assay: BioMAP BF4T system; format: cell-based, human; conditions: Th2 airway inflammation; tofacitinib 37-1000 nM
From the text: (§6) The BioMAP systems consist of human primary cell-based systems designed to model different aspects of the human body in an in vitro format. The 12 systems tested characterized the test compounds across a broad set of systems modeling various human disease states. BioMAP systems were constructed with one or more primary cell types from healthy human donors, with stimuli (such as cytokines or growth factors) added to capture relevant signaling networks that naturally occur in human tissue or pathological conditions. Vascular biology was modeled in both a Th1 (3C system) and a Th2 (4H system) inflammatory environment, as well as in a Th1 inflammatory state specific to arterial smooth muscle cells (CASM3C system). […]
as §4, with “systems.” for “systems. Adherent cell types were cultured in 96 or 384-well plates until confluence, followed by the addition of PBMC (SAg and LPS systems).”

[6] = system: keratinocytes and HDFn+(IL-1β, TNFα and IFNγ); assay: BioMAP KF3CT system; format: cell-based, human; conditions: Th1 cutaneous inflammation; tofacitinib 37-1000 nM
From the text: as §6
as §4, with “systems.” for “systems. Adherent cell types were cultured in 96 or 384-well plates until confluence, followed by the addition of PBMC (SAg and LPS systems).”

[7] = PF-06650833 19-500 nM, tofacitinib 37-1000 nM
[8] = BioMAP profile, PF-06650833 19-500 nM, tofacitinib 37-1000 nM
[9] = BioMAP profile, tofacitinib 37-1000 nM

For `CC[C@@H]1[C@H](F)C(=O)N[C@@H]1COc1nccc2cc(C(N)=O)c(OC)cc12` [PF-06650833, 1-(((2S,3S,4S)-3-Ethyl-4-fluoro-5-oxopyrrolidin-2-yl)methoxy)-7-methoxyisoquinoline-6-carboxamide], the “MIG, Log10 molar ratio in the HDF3CGF system” value ([1]; PF-06650833 at 170 nM alone) was −0.04121, the “Inhibition of biomarker readouts in the HDF3CGF system” value (shortened to “Inhibition … in the HDF3CGF system”) [1] was “modest inhibition VCAM-1, Col-III, and TIMP2” and the “Inhibition of biomarker readouts in the BT system” value (“Inhibition … in the BT system” below) ([2]; listed as 1-(((2S,3S,4S)-3-Ethyl-4-fluoro-5-oxopyrrolidin-2-yl)methoxy)-7-methoxyisoquinol) was “little effect; also recorded: modest inhibition of IL-6 and sIL-17F”. The “Inhibition … in the BT system” value ([2]; listed as 1-(((2S,3S,4S)-3-ethyl-4-fluoro-5-oxopyrrolidin-2-yl)methoxy)-7-methoxyisoquinol) was “sIL-17F and sTNFα”, the “Number of annotated readouts with activity” value [3, 7] was 14 and the “Overt cytotoxicity on primary human cell types” value [3, 7] was “no evidence of overt cytotoxicity”. The “Immunomodulatory activities: Decreased Activity” value [3, 8] was “decreased CD40, CD69, M-CSF, secreted IL-17F; also recorded: CD40, CD69, M-CSF, *sIL-17F”, the “Inflammation-related activities: Decreased Activity” value [3, 8] was “decreased E-selectin, MCP-1, VCAM-1, IL-6, IL-8, IL-1α, secreted TNFα, secreted PGE2; also recorded: MCP-1, VCAM-1, E-selectin, IL-6, IL-8, IL-1α, *sTNFα, *sPGE2” and the “Additional activities in the BioMAP systems” value ([3]; PF-06650833 19-500 nM) was “modest effects in BT and CASM3C systems and concentration-related decreases in secreted IL-17F and inhibition of secreted TNFα and IL-6 at the higher two concentrations only”. For the same compound, the “Antiproliferative effect on primary cell types” value [3, 7] was “no antiproliferative effect”, the “Effects of 10 mg/kg tofacitinib on PF-06650833 exposure” value ([4]; female rats, 50 mg/kg PF-06650833) was “no significant effects” and the “Effects of 10 mg/kg tofacitinib on PF-06650833 exposure” value ([4]; male rats, 100 mg/kg PF-06650833) was “no significant effects”.
With `C[C@@H]1CCN(C(=O)CC#N)C[C@@H]1N(C)c1ncnc2[nH]ccc12` [tofacitinib, 3-((3R,4R)-4-Methyl-3-(methyl(7H-pyrrolo[2,3-d]pyrimidin-4-yl)amino)piperidin-1-yl)-3-oxopropanenitrile] the “Inhibition … in the HDF3CGF system” value [1] was “ITAC and VCAM-1”, the “Inhibition … in the HDF3CGF system” value ([1]; listed as Tofacitinib) was “VCAM-1 and ITAC” and the “Increased biomarker readouts in the BF4T system” value [5] was “MMP9”. The “Inhibition of biomarker readouts in the BF4T system” value [5] was “active over all tested concentrations; also recorded: Eot3, and VCAM-1”, the “Inhibition of biomarker readouts in the KF3CT system” value [6] was “MCP-1” and the “Inhibition … in the BT system” value [2] was “sIgG, sIL-17F, sIL-2, IL-6, and sTNFα; also recorded: strongly inhibited responses”. For the same compound, the “Inhibition … in the BT system” value ([2]; listed as Tofacitinib) was “active over all tested concentrations; also recorded: sIgG, sIL-17F, sIL-6, and sTNFα”, the “Increased biomarker readouts in the BT system” value [2] was “increase in secreted IL-2” and the “Increased biomarker readouts in the BT system” value ([2]; listed as Tofacitinib) was “sIL-2”. For the same compound, the “B cell proliferation in the BT system” value ([2]; concentrations of FIGS. 13-14) was “B cell anti-proliferative activity”, the “Number of annotated readouts with activity” value [3, 7] was 21 and the “Overt cytotoxicity on primary human cell types” value [3, 7] was “no evidence of overt cytotoxicity”. The “Immunomodulatory activities: Decreased Activity” value [3, 8] was “decreased secreted IgG, CD38, secreted IL-6, CD69, secreted IL-17F; also recorded: *sIL-6, *sIL-17F; also recorded: CD38, CD69, *sIgG,”, the “Inflammation-related activities: Decreased Activity” value [3, 8] was “decreased Eotaxin 3, MCP-1, VCAM-1, I-TAC, MIG, P-selectin; also recorded: MCP-1, Eot3,; also recorded: ITAC, MIG” and the “Immunomodulatory activities: Increased Activity” value [3, 9] was “increased secreted IL-2; also recorded: *sIL-2”. For the same compound, the “Inflammation-related activities: Increased Activity” value [3, 9] was “increased IL-1α, secreted PGE2; also recorded: *sPGE2”, the “Inflammation-related activities: Modulated Activity” value [3, 9] was “modulated secreted TNFα; also recorded: *sTNFα” and the “Tissue remodeling activities: Increased Activity” value [3, 9] was “increased MMP-9 and MMP9”. For the same compound, the “Antiproliferative effect on primary cell types” value [3, 7] was “selectively antiproliferative to T cells” and the “Cytostatic effect on B cells, vascular cell types or fibroblasts” value ([3]; tofacitinib 37-1000 nM) was “no cytostatic effect”.
